Test results: PubChem BioAssay AID1963866 (Molecular Pharmacology Branch, DTP, NCI, 2024)

System: PDC KRAS tumor spheroids with HUVEC/MSC, viability
Assay: Anticancer human tumor 349418-098-R-PDC patient-derived lung adenocarcinoma cell line growth inhibition [KRAS2]
Settings: for IC50: curve of first compound; for viability, T/C: stronger effect = lower value
Source text: Multicellular complex tumor spheroid response to RAS pathway inhibitors in combination with a targeted agents in patient-derived cell lines with oncogenic KRAS variants from multiple cancer types
A high-throughput screen of multi-cell type tumor spheroids was designed to identify active combinations of targeted small molecules and KRAS pathway inhibitors. Complex spheroids include a stromal component modeled by human endothelial cells (HUVEC) and fibroblasts modeled by human mesenchymal stem cells (MSCs). The concentration ranges selected for each drug and investigational agent were based upon clinically achievable concentrations if the clinical Cmax of the agent was known.
Compounds. The drugs and investigational agents: BI-3406 (NSC825286), BAY-293 (NSC824723), batoprotafib (TNO155; NSC825523), sotorasib (AMG 510; NSC818433), MRTX1257 (NSC819558), elimusertib (BAY 1895344; NSC800525), molibresib (GSK525762; NSC774829), temuterkib (LY3214996; NSC803410), venetoclax (NSC766270), alisertib (NSC759677), olaparib (NSC753686), talazoparib (NSC767125), erdafitinib (NSC781556), ipatasertib (NSC767898), cabozantinib (NSC761068), nintedanib (NSC756659), abemaciclib (NSC768073), docetaxel (NSC628503), trametinib (NSC758246), and sapanisertib (NSC764658) were obtained from the National Cancer Institute (NCI) Developmental Therapeutics Program Chemical Repository. The FDA-approved anticancer drug set is available from the Developmental Therapeutics Program. […] The stock solutions were prepared in dimethyl sulfoxide (DMSO, Sigma-Aldrich, St. Louis, MO, cat. D2650) at 800-fold the tested concentration and stored at -70 degrees C prior to their use. All drugs and investigational agents were tested over a range starting from a high concentration at or near the clinical Cmax and decreasing in half-log increments. If the clinical Cmax for an agent had not been determined, the highest concentration tested was 10 microM.
Cell Culture. All cells were maintained in an incubator at 37 degrees C and 5% CO2 with 95% humidity. The PDC lines were cultured according to standard operating procedures established by the NCI PDMR (https://pdmr.cancer.gov/sops/default.htm). Briefly, all PDCs were thawed and cultured in Matrigel-coated flasks prepared with a working solution of 1X Ham's F-12 nutrient mix, without supplementation (Invitrogen, Waltham, MA, cat. 11765054), 100 U/mL penicillin-streptomycin (Invitrogen, cat. 15140122), and 2.5% Matrigel (Corning Inc., Corning, NY, cat. 354248) for the first three passages. All PDCs were cultured in complete DMEM/F-12 media containing advanced DMEM/F-12 (Invitrogen, cat. 12634028), 4.9% defined fetal bovine serum, heat inactivated (HyClone Laboratories Inc., Logan, UT, cat. SH30070.03HI), 389 ng/mL hydrocortisone (Sigma-Aldrich, cat. H4001), 9.7 ng/mL human EGF recombinant protein (Invitrogen, cat. PHG0313), 23.4 microg/mL adenine (Sigma-Aldrich, cat. A2786), 97.3 U/mL penicillin-streptomycin (Invitrogen, cat. 15140122), 1.9 mM L-glutamine (Invitrogen, cat. 25030081), and 9.7 microM Y-27632 dihydrochloride (Tocris Bioscience, Bristol, United Kingdom, cat. 1254). The PDCs were cultured in complete DMEM/F12 media without 9.7 microM Y-27632 dihydrochloride for at least two passages prior to the screen. The established cell line HOP-62 was cultured in RPMI 1640 medium, HEPES (Invitrogen, cat. 22400105) with 10% defined fetal bovine serum (HyClone Laboratories Inc., cat. SH30070.03) and 2 mM L-glutamine (Invitrogen, cat. 25030081). The pooled donor HUVEC were cultured in endothelial cell growth medium 2 (PromoCell, Heidelberg, Germany, cat. C-22011) and the hMSC were cultured in mesenchymal stem cell growth medium 2 (PromoCell, cat. C-28009). For all experiments, HUVEC and hMSC were used at passages </=5, while the malignant cell lines were used at passages </=15. […]

[1] = second compound 0.1 µM, first compound 0.000316 µM
[2] = second compound 0.1 µM, first compound 0.001 µM
[3] = second compound 0.1 µM, first compound 0.00316 µM
[4] = second compound 0.1 µM, first compound 0.01 µM
[5] = second compound 0.1 µM, first compound 0.0316 µM
[6] = second compound 0.316 µM, first compound 0.000316 µM
[7] = second compound 0.316 µM, first compound 0.001 µM
[8] = second compound 0.316 µM, first compound 0.00316 µM
[9] = second compound 0.316 µM, first compound 0.01 µM
[10] = second compound 0.316 µM, first compound 0.0316 µM
[11] = second compound 1 µM, first compound 0.000316 µM
[12] = second compound 1 µM, first compound 0.001 µM
[13] = second compound 1 µM, first compound 0.00316 µM
[14] = second compound 1 µM, first compound 0.01 µM
[15] = second compound 1 µM, first compound 0.0316 µM
[16] = second compound 3.16 µM, first compound 0.000316 µM
[17] = second compound 3.16 µM, first compound 0.001 µM
[18] = second compound 3.16 µM, first compound 0.00316 µM
[19] = second compound 3.16 µM, first compound 0.01 µM
[20] = second compound 3.16 µM, first compound 0.0316 µM
[21] = second compound 10 µM, first compound 0.000316 µM
[22] = second compound 10 µM, first compound 0.001 µM
[23] = second compound 10 µM, first compound 0.00316 µM
[24] = second compound 10 µM, first compound 0.01 µM
[25] = second compound 10 µM, first compound 0.0316 µM
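Further: spheroids exposed to compounds for seven days before readout.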

Compound	IC50 (second compound 0.1 µM)	IC50 (second compound 0.316 µM)	IC50 (second compound 1 µM)	IC50 (second compound 3.16 µM)	IC50 (second compound 10 µM)	viability, T/C [1]	viability, T/C [2]	viability, T/C [3]	viability, T/C [4]	viability, T/C [5]	viability, T/C [6]	viability, T/C [7]	viability, T/C [8]	viability, T/C [9]	viability, T/C [10]	viability, T/C [11]	viability, T/C [12]	viability, T/C [13]	viability, T/C [14]	viability, T/C [15]	other results
CC(=O)Nc1cccc(-n2c(=O)n(C3CC3)c(=O)c3c(Nc4ccc(I)cc4F)n(C)c(=O)c(C)c32)c1 + C=CC(=O)N1CCN(c2nc(=O)n(-c3c(C)ccnc3C(C)C)c3nc(-c4c(O)cccc4F)c(F)cc23)C(C)C1	< 0.1 nM	< 0.1 nM	< 0.1 nM	< 0.1 nM	< 0.1 nM	21.9%	20.4%	17.6%	11%	7.55%	31.2%	25.3%	19.1%	11.8%	9.88%	34.8%	23.4%	19.3%	13.4%	8.89%	viability, T/C (second compound 0.1 µM, first compound 0.0001 µM): 48.6%; viability, T/C (second compound 0.316 µM, first compound 0.0001 µM): 34.9%; viability, T/C (second compound 1 µM, first compound 0.0001 µM): 39.4%; viability, T/C (second compound 3.16 µM, first compound 0.0001 µM): 39.5%; viability, T/C [16]: 29%; viability, T/C [17]: 22%; viability, T/C [18]: 20.9%; viability, T/C [19]: 13%; viability, T/C [20]: 10%; viability, T/C (second compound 10 µM, first compound 0.0001 µM): 25.4%; viability, T/C [21]: 17.4%; viability, T/C [22]: 18.2%; viability, T/C [23]: 15.9%; viability, T/C [24]: 10.7%; viability, T/C [25]: 9.82%
CC(C)n1nc(-c2ccc3oc(N)nc3c2)c2c(N)ncnc21 + C=CC(=O)N1CCN(c2nc(=O)n(-c3c(C)ccnc3C(C)C)c3nc(-c4c(O)cccc4F)c(F)cc23)C(C)C1	0.827 nM	0.865 nM	0.551 nM	< 0.316 nM	< 0.316 nM	87.7%	42.6%	17.4%	9.72%	7.63%	70.5%	47%	19%	8.07%	7.39%	68%	30.5%	15.7%	8.07%	6.75%	viability, T/C (second compound 0.1 µM, first compound 0.1 µM): 6.75%; viability, T/C (second compound 0.316 µM, first compound 0.1 µM): 6.37%; viability, T/C (second compound 1 µM, first compound 0.1 µM): 6.16%; viability, T/C [16]: 37.9%; viability, T/C [17]: 35.5%; viability, T/C [18]: 10.3%; viability, T/C [19]: 7.68%; viability, T/C [20]: 6.06%; viability, T/C (second compound 3.16 µM, first compound 0.1 µM): 6.09%; viability, T/C [21]: 26.1%; viability, T/C [22]: 15.7%; viability, T/C [23]: 10.1%; viability, T/C [24]: 7.31%; viability, T/C [25]: 6.65%; viability, T/C (second compound 10 µM, first compound 0.1 µM): 6.48%
